Drawing on paper PMC2649750 (The Journal of pharmacology and experimental therapeutics, 2008), this text covers Ki for one compound.

This experiment has as its target tubulin. Description: inhibition of [3H]vinblastine binding. Further details: species or system Bos taurus.

SMILES strings stand for the structures.

By Ki is commonly meant the dissociation constant of the complex between target and ligand, obtained from inhibition or displacement. Low readings indicate tighter binding, high ones weaker binding. For the compound `C/C=C/C(O)C(C)(C)[C@@H]1C\C=C/C=C\C=C/[C@H](OC)Cc2nc(co2)C(=O)O[C@H](C(C)(C)C(O)/C=C/C)C/C=C\C=C/C=C[C@H](OC)Cc2nc(co2)C(=O)O1` (stereo partly shown) [disorazole C1], affinity was put at a Ki of 4.5 ± 0.6 µM.
